# Experimental data taken from US10745382B2 (BRISTOL-MYERS SQUIBB COMPANY, priority 2015, dated 2020).
# Like-named read-outs stand apart in the source and are kept apart here.
# Molecular target: T1, PD-1/PD-L1 (Homo sapiens, UniProt Q9NZQ7)
# T1 construct: made in house; host or cells: HEK293T
# Assay: PD-1/PD-L1 Homogenous Time-Resolved Fluorescence (HTRF) binding assay
# Conditions: PD-L1-His 10 nM, PD-1-Ig 20 nM, read-out: Range or IC50
# Procedure, shortened: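 Binding was measured by HTRF in dPBS with 0.1% BSA and 0.05% Tween-20. Detection used europium cryptate anti-Ig (1 nM final) and APC anti-His (20 nM final) added over the binding reaction.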
# T1 sequence (Q9NZQ7 with tags, fused parts or gaps): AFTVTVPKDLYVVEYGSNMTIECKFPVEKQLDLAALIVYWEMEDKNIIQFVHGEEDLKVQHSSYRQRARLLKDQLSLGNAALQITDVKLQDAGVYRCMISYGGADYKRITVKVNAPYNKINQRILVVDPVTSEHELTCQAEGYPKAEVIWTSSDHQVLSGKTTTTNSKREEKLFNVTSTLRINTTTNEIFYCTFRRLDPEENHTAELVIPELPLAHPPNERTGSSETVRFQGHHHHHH
Compound,IC50 (value given as range class) [µM],"IC50 (numeric IC50, cell prints uM) [µM]"
"CC(CO)(CO)NCc1cc(Cl)c(OCc2cccc(-c3cccc(OCCCN4CC[C@@H](O)C4)c3Cl)c2Cl)cc1OCCC(F)(F)F [Example 2107, (R)-2-((5-chloro-4-((2,2′-dichloro-3′-(3-(3-hydroxypyrrolidin-1-yl)propoxy)-[1,1′-biphenyl]-3-yl)methoxy)-2-(3,3,3-trifluoropropoxy)benzyl)amino)-2-methylpropane-1,3-diol]",0.00021 to 0.01,–
"CN(C)CCOc1cc(OCc2cccc(-c3cccc(OCCCN4CC[C@@H](O)C4)c3Cl)c2Cl)c(Cl)cc1CNC(C)(CO)CO [Example 2108, (R)-2-((5-chloro-4-((2,2′-dichloro-3′-(3-(3-hydroxypyrrolidin-1-yl)propoxy)-[1,1′-biphenyl]-3-yl)methoxy)-2-(2-(dimethylamino)ethoxy)benzyl)amino)-2-methylpropane-1,3-diol]",0.00021 to 0.01,–
"COCC(COC)NCc1cc(Cl)c(OCc2cccc(-c3cccc(OCCCN4CC[C@@H](O)C4)c3Cl)c2C)cc1OCc1cncc(C#N)c1 [Example 2109, (R)-5-((4-chloro-5-((2′-chloro-3′-(3-(3-hydroxypyrrolidin-1-yl)propoxy)-2-methyl-[1,1′-biphenyl]-3-yl)methoxy)-2-(((1,3-dimethoxypropan-2-yl)amino)methyl)phenoxy)methyl)nicotinonitrile]",0.00021 to 0.01,–
"Cc1c(COc2cc(OCc3cncc(C#N)c3)c(CNC3(CO)COC3)cc2Cl)cccc1-c1cccc(OCCCN2CC[C@@H](O)C2)c1Cl [Example 2110, (R)-5-((4-chloro-5-((2′-chloro-3′-(3-(3-hydroxypyrrolidin-1-yl)propoxy)-2-methyl-[1,1′-biphenyl]-3-yl)methoxy)-2-(((3-(hydroxymethyl)oxetan-3-yl)amino)methyl)phenoxy)methyl)nicotinonitrile]",0.00021 to 0.01,–
"CCN(Cc1cc(Cl)c(OCc2cccc(-c3cccc(OCCCN4CC[C@@H](O)C4)c3Cl)c2C)cc1OCc1cncc(C#N)c1)C(CO)CO [Example 2111, (R)-5-((4-chloro-5-((2′-chloro-3′-(3-(3-hydroxypyrrolidin-1-yl)propoxy)-2-methyl-[1,1′-biphenyl]-3-yl)methoxy)-2-(((1,3-dihydroxypropan-2-yl)(ethyl)amino)methyl)phenoxy)methyl)nicotinonitrile]",0.00021 to 0.01,–
"CC(CO)(CO)NCc1cc(Cl)c(OCc2cccc(-c3cccc(OCCCN4CC[C@@H](O)C4)c3Cl)c2Cl)cc1OCc1cc(Cl)ccc1Cl [Example 2112, (R)-2-((5-chloro-4-((2,2′-dichloro-3′-(3-(3-hydroxypyrrolidin-1-yl)propoxy)-[1,1′-biphenyl]-3-yl)methoxy)-2-((2,5-dichlorobenzyl)oxy)benzyl)amino)-2-methylpropane-1,3-diol]",0.00021 to 0.01,–
"Cc1c(COc2cc(OCc3cncc(C#N)c3)c(CN(CC3CC3)C(CO)CO)cc2Cl)cccc1-c1cccc(OCCCN2CC[C@@H](O)C2)c1Cl [Example 2113, (R)-5-((4-chloro-5-((2′-chloro-3′-(3-(3-hydroxypyrrolidin-1-yl)propoxy)-2-methyl-[1,1′-biphenyl]-3-yl)methoxy)-2-(((cyclopropylmethyl)(1,3-dihydroxypropan-2-yl)amino)methyl)phenoxy)methyl)nicotinonitrile]",0.00021 to 0.01,–
"Cc1c(COc2cc(OCc3cncc(C#N)c3)c(CN(CC3CC3)C(C)(CO)CO)cc2Cl)cccc1-c1cccc(OCCCN2CC[C@@H](O)C2)c1Cl [Example 2114, (R)-5-((4-chloro-5-((2′-chloro-3′-(3-(3-hydroxypyrrolidin-1-yl)propoxy)-2-methyl-[1,1′-biphenyl]-3-yl)methoxy)-2-(((cyclopropylmethyl)(1,3-dihydroxy-2-methylpropan-2-yl)amino)methyl)phenoxy)methyl)nicotinonitrile]",0.00021 to 0.01,–
"Cc1c(COc2cc(OCc3cncc(C#N)c3)c(CN3CCOC[C@H]3CO)cc2Cl)cccc1-c1cccc(OCCCN2CC[C@@H](O)C2)c1Cl [Example 2115, 5-((4-chloro-5-((2′-chloro-3′-(3-((R)-3-hydroxypyrrolidin-1-yl)propoxy)-2-methyl-[1,1′-biphenyl]-3-yl)methoxy)-2-(((R)-3-(hydroxymethyl)morpholino)methyl)phenoxy)methyl)nicotinonitrile]",0.00021 to 0.01,–
"Cc1c(COc2cc(OCc3cncc(C#N)c3)c(CNC[C@H](O)CO)cc2Cl)cccc1-c1cccc(OCCCO)c1Cl [Example 2116, (S)-5-((4-chloro-5-((2′-chloro-3′-(3-hydroxypropoxy)-2-methyl-[1,1′-biphenyl]-3-yl)methoxy)-2-(((2,3-dihydroxypropyl)amino)methyl)phenoxy)methyl)nicotinonitrile]",0.00021 to 0.01,–
"Cc1c(COc2cc(OCc3cncc(C(N)=O)c3)c(CNC[C@H](O)CO)cc2Cl)cccc1-c1cccc(OCCCO)c1Cl [Example 2117, (S)-5-((4-chloro-5-((2′-chloro-3′-(3-hydroxypropoxy)-2-methyl-[1,1′-biphenyl]-3-yl)methoxy)-2-(((2,3-dihydroxypropyl)amino)methyl)phenoxy)methyl)nicotinamide]",0.00021 to 0.01,–
"Cc1c(COc2cc(OCc3cncc(C#N)c3)c(CNC(C)(CO)CO)cc2Cl)cccc1-c1cccc(OCCC(=O)NC[C@H](O)CO)c1Cl [Example 2118, (S)-3-((2-chloro-3′-((2-chloro-5-((5-cyanopyridin-3-yl)methoxy)-4-(((1,3-dihydroxy-2-methylpropan-2-yl)amino)methyl)phenoxy)methyl)-2′-methyl-[1,1′-biphenyl]-3-yl)oxy)-N-(2,3-dihydroxypropyl)propanamide]",0.00021 to 0.01,–
"Cc1c(COc2cc(OCc3cncc(C#N)c3)c(CNC(C)(CO)CO)cc2Cl)cccc1-c1cccc(OC[C@H]2CCN(CC(O)CO)C2)c1Cl (stereo partly drawn) [Example 2119, 5-((4-chloro-5-((2′-chloro-3′-(((3S)-1-(2,3-dihydroxypropyl)pyrrolidin-3-yl)methoxy)-2-methyl-[1,1′-biphenyl]-3-yl)methoxy)-2-(((1,3-dihydroxy-2-methylpropan-2-yl)amino)methyl)phenoxy)methyl)nicotinonitrile]",0.00021 to 0.01,–
"Cc1c(COc2cc(OCc3cncc(C#N)c3)c(CN3CCCC[C@H]3C(=O)O)cc2Cl)cccc1-c1cccc(OC[C@H]2CCN(CC(O)CO)C2)c1Cl (stereo partly drawn) [Example 2120, (2S)-1-(5-chloro-4-((2′-chloro-3′-(((3S)-1-(2,3-dihydroxypropyl)pyrrolidin-3-yl)methoxy)-2-methyl-[1,1′-biphenyl]-3-yl)methoxy)-2-((5-cyanopyridin-3-yl)methoxy)benzyl)piperidine-2-carboxylic Acid]",0.00021 to 0.01,–
"Cc1c(COc2cc(OCc3cncc(C#N)c3)c(CNCCN3CCOCC3)cc2Cl)cccc1-c1cccc(OCCCN2CC[C@@H](O)C2)c1C [Example 2122, (R)-5-((4-chloro-5-((3′-(3-(3-hydroxypyrrolidin-1-yl)propoxy)-2,2′-dimethyl-[1,1′-biphenyl]-3-yl)methoxy)-2-(((2-morpholinoethyl)amino)methyl)phenoxy)methyl)nicotinonitrile]",0.00021 to 0.01,–
"Cc1c(OCCCN2CC[C@@H](O)C2)cccc1-c1cccc(OCc2cc(O)c(CN(C)C)cc2Cl)c1C [Example 2123, (R)-1-(3-((3′-((2-chloro-4-((dimethylamino)methyl)-5-hydroxybenzyl)oxy)-2,2′-dimethyl-[1,1′-biphenyl]-3-yl)oxy)propyl)pyrrolidin-3-ol]",–,2
"Cc1c(COc2cc(OCc3cncc(C#N)c3)c(CN3CC[C@@H](O)C3)cc2Cl)cccc1-c1cccc(OCCCN2CC[C@@H](O)C2)c1C [Example 2201, 5-((4-chloro-2-(((R)-3-hydroxypyrrolidin-1-yl)methyl)-5-((3′-(3-((R)-3-hydroxypyrrolidin-1-yl)propoxy)-2,2′-dimethylbiphenyl-3-yl)methoxy)phenoxy)methyl)nicotinonitrile]",0.00021 to 0.01,–
"Cc1c(COc2cc(OCc3cncc(C#N)c3)c(CN3CCCC[C@H]3C(=O)O)cc2Cl)cccc1-c1cccc(OCCCN2CCCCC2CO)c1C (stereo partly drawn) [Example 2202, (2S)-1-(5-chloro-2-((5-cyanopyridin-3-yl)methoxy)-4-((3′-(3-(2-(hydroxymethyl)piperidin-1-yl)propoxy)-2,2′-dimethylbiphenyl-3-yl)methoxy)benzyl)piperidine-2-carboxylic Acid]",0.00021 to 0.01,–
"Cc1c(COc2cc(OCc3cncc(C#N)c3)c(CN3CCCC[C@H]3C(=O)O)cc2Cl)cccc1-c1cccc(OCCCN2CC[C@H](CO)[C@H](O)C2)c1C [Example 2203, (2S)-1-(5-chloro-2-((5-cyanopyridin-3-yl)methoxy)-4-((3′-(3-((3 S,4R)-3-hydroxy-4-(hydroxymethyl)piperidin-1-yl)propoxy)-2,2′-dimethylbiphenyl-3-yl)methoxy)benzyl)piperidine-2-carboxylic Acid]",0.00021 to 0.01,–
"Cc1c(COc2cc(OCc3cncc(C#N)c3)c(CN3CCCC[C@H]3C(=O)O)cc2Cl)cccc1-c1cccc(OCCCN2CCC[C@H](C(=O)O)C2)c1C [Example 2204, (2S)-1-(4-((3′-(3-((S)-3-carboxypiperidin-1-yl)propoxy)-2,2′-dimethylbiphenyl-3-yl)methoxy)-5-chloro-2-((5-cyanopyridin-3-yl)methoxy)benzyl)piperidine-2-carboxylic Acid]",0.00021 to 0.01,–
"Cc1c(COc2cc(OCc3cncc(C#N)c3)c(CN3CCCC[C@H]3C(=O)O)cc2Cl)cccc1-c1cccc(OCCCN2CCC[C@@H](C(=O)O)C2)c1C [Example 2205, (2S)-1-(4-((3′-(3-((R)-3-carboxypiperidin-1-yl)propoxy)-2,2′-dimethylbiphenyl-3-yl)methoxy)-5-chloro-2-((5-cyanopyridin-3-yl)methoxy)benzyl)piperidine-2-carboxylic Acid]",0.00021 to 0.01,–
